Results from ChEMBL document CHEMBL1152111, “Synthesis and biological activity of conformationally constrained 4a-phenanthreneamine derivatives as noncompetitive NMDA antagonists” (Bioorg Med Chem Lett, 1993).

Legend:
Mus musculus [1] = organism: Mus musculus; experiment: Ataxia assessment was made immediately prior to NMDA injection using a rotarod measurement; format: functional
Glutamate NMDA receptor = experiment: Inhibitory concentration of compound required to displace [3H]TCP 1-[ 1-(2-thienyl)cyclohexyl]piperidine in whole rat brain homogenate
Mus musculus [2] = experiment: In vivo NMDA antagonism of compound was assessed for its ability to prevent lethality in mice due to injection of NMDA; format: functional
[3] = Log P value at pH 7.4; format: physicochemical; conditions: buffer
Mus musculus [4] = experiment: In vivo NMDA antagonism of compound was assessed for its ability to prevent lethality in mice due to injection of NMDA.; format: functional

Row | SMILES | ED50 (Mus musculus [1]) [mg/kg] | IC50 (Glutamate NMDA receptor) [nM] | ED50 (Mus musculus [2]) [mg/kg] | logD [3] | ED50 (Mus musculus [4]) [mg/kg]
1 | CN1C[C@@H]2Cc3ccccc3[C@]13CCCC[C@@H]23 | 3 | 137 | 1.8 | 0.94 | 
2 | CN[C@]12CCCC[C@H]1CCc1ccccc12 | 0.44 | 14.7 |  | 1.1 | 0.54
3 | CN1CC[C@]23CCCC[C@@]12c1ccccc1CC3 | 0.3 | 16.8 |  | 0.53 | 0.72
4 | c1ccc2c(c1)C[C@H]1CN[C@@]23CCCC[C@@H]13 | 3.2 | 86 |  | -0.1 | 3.5
5 | c1ccc2c(c1)CC[C@@]13CCCC[C@]21NCC3 | 3.2 | 151 | 3.5 |  | 
6 | C[C@]12N[C@H](Cc3ccccc31)c1ccccc12 [DIZOCILPINE] | 0.1 |  |  | 2.1 | 0.34
